Laboratory results taken from US8173684B2, “Pyridone derivatives as p38α MAPK inhibitors” (Astellas Pharma Inc., priority 2007, dated 2012).

System: TNF-α production in THP-1 cells
Assay: Test 1: Inhibition of TNF-α production in THP-1 cells
Type: cell-based
Conditions: Homo sapiens; 100 nM test compound; LPS (10 μg/mL) stimulated THP-1 cells, 20 hr; TNF-α in supernatant vs 0.1% DMSO control
Protocol: Test 1: Inhibition of TNF-α Production in THP-1 Cells
THP-1 cells, a human monocytic cell line, were maintained in RPMI 1640 (Sigma R8758) supplemented with penicillin (50 U/mL), streptomycin (50 μg/mL) and 10% fetal bovine serum (Moregate BioTech.) at 37° C., 5% CO2 in a humidified incubator. Initial stock solutions of test compounds were made in DMSO. All cells, reagents and test compounds were diluted into culture media. THP-1 cells (1×10^5 cells/well final) and lipopolysaccharide (LPS; 10 μg/mL final; Sigma L-4005, from E. coli serotype 0.55:B5) were added to 96 well polypropylene culture plates (Sumilon, MS-8196F5; sterile) containing test compound or 0.1% DMSO vehicle. The cell mixture was incubated for 20 hr in a humidified incubator at 37° C., 5% CO2. The culture supernatants were harvested and TNF-α levels from LPS stimulated cells in the presence of 100 nM test compound was calculated compared with control cells stimulated in the presence of 0.1% DMSO.

First: O=C(Nc1cc(C(=O)NC2CC2)ccc1Cl)c1ccc(=O)n(-c2cccc(F)c2F)c1 [Example 17, N-{2-Chloro-5-[(cyclopropylamino)carbonyl]phenyl}-1-(2,3-difluorophenyl)-6-oxo-1,6-dihydro-3-pyridinecarboxamide]
Second: O=C(Nc1cc(C(=O)NC2CC2)ccc1Cl)c1ccc(=O)n(-c2c(F)cccc2Cl)c1 [Example 16, N-{2-Chloro-5-[(cyclopropylamino)carbonyl]phenyl}-1-(2-chloro-6-fluorophenyl)-6-oxo-1,6-dihydro-3-pyridinecarboxamide]
The inhibition at 0.1 µM of the first is higher: 75% for the first, 72% for the second.

First: Cn1nccc1NC(=O)c1ccc(Cl)c(NC(=O)c2ccc(=O)n(-c3c(Cl)cccc3Cl)c2)c1 [Example 6, N-{2-Chloro-5-[(1-methyl-1H-pyrazol-5-ylamino)carbonyl]phenyl}-1-(2,6-dichlorophenyl)-6-oxo-1,6-dihydro-3-pyridinecarboxamide]
Second: Cn1ccc(NC(=O)c2ccc(Cl)c(NC(=O)c3ccc(=O)n(-c4c(Cl)cccc4Cl)c3)c2)n1 [Example 5, N-{2-Chloro-5-[(1-methyl-1H-pyrazol-3-ylamino)carbonyl]phenyl}-1-(2,6-dichlorophenyl)-6-oxo-1,6-dihydro-3-pyridinecarboxamide]
The inhibition at 0.1 µM of the first is higher: 82% for the first, 75% for the second.

Going from `CONC(=O)c1ccc(Cl)c(NC(=O)c2ccc(=O)n(-c3c(Cl)cccc3Cl)c2)c1` [Example 2, N-{2-Chloro-5-[(methoxyamino)carbonyl]phenyl}-1-(2,6-dichlorophenyl)-6-oxo-1,6-dihydro-3-pyridinecarboxamide] to `O=C(Nc1cc(C(=O)NC2CC2)ccc1Cl)c1ccc(=O)n(-c2c(Cl)cccc2Cl)c1` [Example 1, N-{2-chloro-5-[(cyclopropylamino)carbonyl]phenyl}-1-(2,6-dichlorophenyl)-6-oxo-1,6-dihydro-3-pyridinecarboxamide], the inhibition at 0.1 µM falls from 84% to 77%.

First: O=C(Nc1ccon1)c1ccc(Cl)c(NC(=O)c2ccc(=O)n(-c3c(Cl)cccc3Cl)c2)c1 [Example 3, N-{2-Chloro-5-[(isoxazol-3-ylamino)carbonyl]phenyl}-1-(2,6-dichlorophenyl)-6-oxo-1,6-dihydro-3-pyridinecarboxamide]
Second: Cc1ccc(C(=O)NC2CC2)cc1NC(=O)c1ccc(=O)n(-c2c(Cl)cccc2Cl)c1 [Example 18, N-{5-[(cyclopropylamino)carbonyl]-2-methylphenyl}-1-(2,6-dichlorophenyl)-6-oxo-1,6-dihydro-3-pyridinecarboxamide]
The inhibition at 0.1 µM of the first is higher: 94% for the first, 78% for the second.

Going from `Cc1ccc(-n2nc(C(C)(C)C)cc2NC(=O)Nc2ccc(C)c(NC(=O)c3ccc(=O)n(-c4c(Cl)cccc4Cl)c3)c2)cc1` [Example 26, N-[5-[({[3-tert-butyl-1-(4-methylphenyl)-1H-pyrazol-5-yl]amino]carbonyl)amino]-2-methylphenyl}-1-(2,6-dichlorophenyl)-6-oxo-1,6-dihydro-3-pyridinecarboxamide] to `Cc1ccc(NC(=O)C2CC2)cc1NC(=O)c1ccc(=O)n(-c2c(Cl)cccc2Cl)c1` [Example 25, N-{5-[(cyclopropylcarbonyl)amino]-2-methylphenyl}-1-(2,6-dichlorophenyl)-6-oxo-1,6-dihydro-3-pyridinecarboxamide], the inhibition at 0.1 µM rises from 68% to 70%.

Compared with `Cc1ccc(C(=O)NC2CC2)cc1NC(=O)c1ccc(=O)n(C(C)(C)C)c1` [Example 20, N-{5-[(cyclopropylamino)carbonyl]-2-methylphenyl}-1-tert-butyl-6-oxo-1,6-dihydro-3-pyridinecarboxamide], `Cc1ccc(C(=O)NC2CC2)cc1NC(=O)c1ccc(=O)n(C(C)c2ccccc2)c1` (centres unmarked) [Example 24, N-{5-[(Cyclopropylamino)carbonyl]-2-methylphenyl}-1-(1-phenylethyl)-6-oxo-1,6-dihydro-3-pyridinecarboxamide] is lower in inhibition at 0.1 µM: 85% for the first, 83% for the second.

Going from `Cc1ccc(C(=O)NC2CC2)cc1NC(=O)c1ccc(=O)n(-c2c(F)cccc2F)c1` [Example 22, N-{5-[(Cyclopropylamino)carbonyl]-2-methylphenyl}-1-(2,6-difluorophenyl)-6-oxo-1,6-dihydro-3-pyridinecarboxamide] to `O=C(Nc1cc(C(=O)NC2CC2)ccc1Br)c1ccc(=O)n(-c2c(F)cccc2F)c1` [Example 15, N-{2-Bromo-5-[(cyclopropylamino)carbonyl]phenyl}-1-(2,6-difluorophenyl)-6-oxo-1,6-dihydro-3-pyridinecarboxamide], the inhibition at 0.1 µM falls from 97% to 69%.
